Values joined by “and” are separate entries in the source; they are usually repeats but may differ in a detail not shown here. Identical values can stand only once.
Experiments:
[1] = test system: T. brucei; assay: T. brucei in vitro screen; assay type: cell-based; conditions: Trypanosoma brucei; average; concentrations up to 10 μM, N=3
Protocol: Compounds 19-31 were screened against T. brucei. The single dose in vitro study included administration of the compounds in increasing concentrations up to 10 μM (N=3 for each compound concentration value). Media and T. bricei+0.5% SDS were used as control.

[2] = test system: T. cruzi (Tulahuen strain) infective form (trypomastigote and amastigote life stages) co-cultured in NIH-3T3 fibroblasts; assay: T. cruzi infective form growth inhibition in NIH-3T3 fibroblasts; assay type: cell-based, Trypanosoma cruzi; conditions: Tulahuen strain infective form in NIH-3T3 fibroblasts; N = 3 (Amphotericin B control: 6 replicates)
Protocol: The curve and the IC50 were calculated from measurements determined in triplicate and expressed as percent growth inhibition of the T. cruzi parasite infection of mammalian cells.
Compounds were further screened against the T. cruzi (Tulahuen strain) infective form (trypomastigote and amastigote life stages) co-cultured in NIH-3T3 fibroblasts to establish IC50 values. Assays were performed in triplicate.
The single dose in vitro study included administration of the compounds in 80 μM inhibitor concentrations (N=3). Amphotericin B was used as a control.

[3] = molecular target: Homo sapiens hexokinase IV (HsHxKIV) (Homo sapiens (Human), UniProt P35557); assay: HsHxKIV enzyme-inhibition screening assay (Example 1); assay type: biochemical; conditions: 20 μM compound; N = 1
Protocol: (§1) D-Glucose was also tested as a control with alternative substrates. The protein expression work for TcGlcK and HsHxKIV were each made possible through the E. coli strain BL21(DE3) system. Purification of each enzyme was performed through cobalt-NTA chromatography followed by size-exclusion chromatography; assessment of purity was performed by SDS-PAGE. In enzymatic assays, a time-optimum (TOPT) was determined to be 120 seconds for TcGlcK and 600 seconds for HsHxKIV; all assays were run at room temperature. A general reaction scheme included a first reaction in which the monosaccharide, ATP, and Mg^2+ react with the enzyme, e.g., TcGlcK, forming a hexose-phosphate and ADP. In a second reaction, hexose-phosphate with the assistance of glucose-6-phosphate dehydrogenase (G6PDH) and NADP^+ was converted to the lactone form of the hexose-phosphate and NADPH. Fluorescence of NADPH was monitored using a fluorescence microplate reader with […] wavelengths of 340 nm and 485 nm, respectively.
(§2) FIG. 4 and FIG. 5 present typical Michaelis-Menten enzyme kinetic plots for D-glucose. As shown, the NADP^+ to NADPH turnover rate is a function of [D-glucose] & [ATP] for TcGlcK (FIG. 4) and HsHxKIV (FIG. 5) absent inhibition. Michaelis-Menten constant (KM) values, which were used as the set final assay concentrations of substrates D-glucose and ATP for the primary screens, were determined for both TcGlcK and HsHxKIV in triplicate runs. The KM values for TcGlcK with respect to D-glucose and ATP were 0.40 mM and 0.34 mM, respectively. The KM values for HsHxKIV with respect to D-glucose and ATP were 43 mM and 0.20 mM, respectively.

[4] = molecular target: Trypanosoma cruzi glucokinase (TcGlcK) (Trypanosoma cruzi (strain CL Brener), UniProt Q4E4E1); assay type: biochemical; conditions: percentage of inhibition at 20 μM of the compound; N = 1
Protocol: as §1, with “In enzymatic assays, a time-optimum (TOPT) was determined to be 120 seconds for TcGlcK and 600 seconds for HsHxKIV; all assays were run at room temperature.” left out
Michaelis-Menten constant (KM) values, which were used as the set final assay concentrations of substrates D-glucose and ATP for the primary screens, were determined for both TcGlcK and HsHxKIV in triplicate runs. […]
The cutoff percentage was calculated by using normalized percent inhibition that took into consideration the positive and negative controls of the fluorescence readout from a fluorescence microplate reader. In addition, an unconfirmed hit was selected if the activity measurement was three standard deviations away from the mean of the positive controls.

[5] = test system: glucose-6-phosphate dehydrogenase (G6PDH); assay: G6PDH confirmatory assay (coupling enzyme counter-screen); assay type: biochemical; conditions: 20 μM compound; quadruplicate
Protocol: The 16 compounds showing substantial inhibition against TcGlcK at compound concentrations of 20 μM were then examined in a confirmatory assay in which the amino sugar analogues were at a concentration of 20 μM and were tested against the assay's only coupling enzyme, G6PDH, to verify enzyme activity; the assay was performed in quadruplicate. […] These confirmed hits included representatives from all three monosaccharide scaffolds tested (i.e., D-GlcN, D-ManN, and D-GalN).

[6] = molecular target: T1, TcGlcK (Trypanosoma cruzi (strain CL Brener), UniProt Q4E4E1); assay: TcGlcK Michaelis-Menten kinetics and substrate range; assay type: biochemical
Protocol: as §1, §2
All phosphorylated hexoses were shown getting converted into their corresponding products by G6PDH, in abundant quantities through a 30-second time frame. This permitted the standard TcGlcK […] assay, which was timed for […], to be used as an assay to analyze alternative substrates.

[7] = molecular target: T1, TcGlcK; assay: Primary assay screen of TcGlcK, normalized percent inhibition (Example 2); assay type: biochemical; conditions: triplicate
Protocol: (§3) Primary assay screens of TcGlcK, LbGlcK, and HsHxKIV against the 3-nitro-2-phenyl-2H-chromene-based inhibitors compound nos. 19-22 were carried out. Compound 1, Benzoyl glucosamine (BENZ-GlcN or simply “BENZ”) and carboxybenzyl glucosamine (CBZ-GlcN or simply “CBZ”) were both used as controls due to their known inhibition against TcGlcK. LbGlcK was chosen to be tested against these compounds due to its 44% protein sequence similarity to TcGlcK.
(§4) All screens were done in triplicate and were analyzed using normalized percent inhibition (NPI) calculations. NPI calculations rely on positive and negative assay controls within the screen to account for any fluctuations in the fluorescence measurements.
(§5) The NPI for a compound to be considered a “hit” against TcGlcK required a value exceeding 60.5% inhibition in the primary screen. All four compounds ([…]) qualified as hits based off of this parameter. LbGlcK required compounds to be above 12.6% inhibition in its primary screen; all four compounds were also qualified as hits.

[8] = molecular target: HsHxKIV (Homo sapiens (Human), UniProt P35557); assay: Primary assay screen of HsHxKIV, normalized percent inhibition (Example 2); assay type: biochemical; conditions: triplicate
Protocol: as §3, §4, §5

Homo sapiens hexokinase IV (HsHxKIV), sequence (P35557 whole entry): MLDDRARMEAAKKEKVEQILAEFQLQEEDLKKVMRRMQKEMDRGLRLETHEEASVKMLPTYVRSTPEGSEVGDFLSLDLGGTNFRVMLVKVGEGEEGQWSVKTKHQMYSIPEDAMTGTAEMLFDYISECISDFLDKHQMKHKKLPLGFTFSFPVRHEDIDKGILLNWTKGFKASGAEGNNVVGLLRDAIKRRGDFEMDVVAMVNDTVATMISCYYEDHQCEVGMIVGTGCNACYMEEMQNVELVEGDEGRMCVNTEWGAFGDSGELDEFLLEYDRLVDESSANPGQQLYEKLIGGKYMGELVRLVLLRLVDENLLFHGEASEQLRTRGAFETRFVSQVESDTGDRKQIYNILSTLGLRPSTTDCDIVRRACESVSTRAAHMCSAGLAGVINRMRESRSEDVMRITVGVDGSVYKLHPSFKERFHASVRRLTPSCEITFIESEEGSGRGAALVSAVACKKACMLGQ
Trypanosoma cruzi glucokinase (TcGlcK), sequence (Q4E4E1 1-376): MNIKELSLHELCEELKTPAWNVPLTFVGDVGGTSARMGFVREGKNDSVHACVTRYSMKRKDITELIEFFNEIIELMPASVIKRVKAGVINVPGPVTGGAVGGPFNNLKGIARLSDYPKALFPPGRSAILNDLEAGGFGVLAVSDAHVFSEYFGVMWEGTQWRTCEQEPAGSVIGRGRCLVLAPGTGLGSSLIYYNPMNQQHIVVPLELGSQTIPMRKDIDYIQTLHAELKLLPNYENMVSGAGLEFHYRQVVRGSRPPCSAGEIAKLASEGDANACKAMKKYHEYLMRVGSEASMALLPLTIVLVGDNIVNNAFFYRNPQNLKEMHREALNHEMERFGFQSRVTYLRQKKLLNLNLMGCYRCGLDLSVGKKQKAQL
T1 sequence (Q4E4E1 1-376): as above
HsHxKIV, sequence (P35557 whole entry): as the sequence (P35557 whole entry) above

Structure (SMILES) | IC50 [2] | HsHxKIV Inh20(%) [3] | TcGlcK Inh20 (%) [4] | G6PDH Inh20 (%) [5] | further results
CCOc1ccc(C2Oc3c(Cl)cc(Cl)cc3C=C2[N+](=O)[O-])cc1OCC (stereo not drawn) [Compound 30, 6,8-Dichloro-2-(3,4-diethoxyphenyl)-3-nitro-2H-chromene] |  |  |  |  | IC50 [1]: 0.664 µM
CCOc1ccc(C2Oc3c(cc(Br)cc3OC)C=C2[N+](=O)[O-])cc1OC (stereo not drawn) [Compound 29, 6-Bromo-2-(4-ethoxy-3-methoxyphenyl)-8-methoxy-3-nitro-2H-chromene] |  |  |  |  | IC50 [1]: 0.743 µM
O=C(N[C@H]1C(O)O[C@H](CO)C(O)[C@@H]1O)c1ccoc1 (stereo partly drawn) [Compound 6] | 49.9 ± 2.99 µM | 41% | 51% | 0.0 ± 0.0% | 
O=C(N[C@@H]1C(O)O[C@H](CO)[C@@H](O)[C@@H]1O)c1ccc(CCl)cc1 (stereo partly drawn) [Compound 9] | 38.4 ± 1.41 µM | 28% | 33% | 0.0 ± 0.0% | 
O=C(CO)[C@@H](O)[C@H](O)[C@H](O)CO [D-fructose] |  |  |  |  | increase of TcGlcK activity from 15 mM to 50 mM substrate [6]: 2.58 fold; TcGlcK activity relative to D-glucose (100%) ([6]; substrate concentration 15 mM): 18.9%; TcGlcK activity relative to D-glucose (100%) ([6]; substrate concentration 50 mM): 48.8%
Cc1ccc(C(=O)N[C@H]2C(O)O[C@H](CO)[C@H](O)[C@@H]2O)o1 (stereo partly drawn) [Compound 16] | 20.2 µM | 41% | 30% | 0.0 ± 0.0% | 
O=[N+]([O-])C1=Cc2ccccc2O[C@H]1c1c(Cl)cccc1Cl [Compound 22] |  |  |  |  | NPI (%) TcGlcK [7]: 69.5%; NPI (%) HsHxKIV [8]: 66.0%
C[C@@H]1[C@H](O)[C@@H](C)/C=C/C=C/C=C/C=C/C=C/C=C/C=C/[C@H](O[C@@H]2O[C@H](C)[C@@H](O)[C@H](N)[C@@H]2O)C[C@@H]2O[C@](O)(C[C@@H](O)C[C@@H](O)[C@H](O)CC[C@@H](O)C[C@@H](O)CC(=O)O[C@H]1C)C[C@H](O)[C@H]2C(=O)O [Amphotericin B, reference compound] | 1.08 ± 0.84 µM |  |  |  | 
O=C(N[C@@H]1C(O)O[C@H](CO)[C@@H](O)[C@@H]1O)c1ccccc1 (stereo partly drawn) [Compound 7] | 43.5 ± 0.68 µM | 55% | 71% | 0.0 ± 0.0% | 
O=C(N[C@H]1C(O)O[C@H](CO)[C@H](O)[C@@H]1O)c1cc2ccccc2o1 (stereo partly drawn) [Compound 17] | 66.6 ± 13.7 µM | 37% | 39% | 0.0 ± 0.0% | 
O=C(N[C@H]1C(O)O[C@H](CO)[C@H](O)[C@@H]1O)c1ccoc1 (stereo partly drawn) [Compound 18] | 36.4 ± 1.47 µM | 47% | 56% | 0.0 ± 0.0% | 
CCOc1ccc(C2Oc3ccc(Br)cc3C=C2[N+](=O)[O-])cc1OC (stereo not drawn) [Compound 23, 6-Bromo-2-(4-ethoxy-3-methoxyphenyl)-3-nitro-2H-chromene] |  |  |  |  | IC50 [1]: 0.614 µM
O=C(N[C@H]1C(O)O[C@H](CO)[C@H](O)[C@@H]1O)c1ccccc1 (stereo partly drawn) [Compound 13] | 55.3 ± 11.9 µM | 38% | 59% | 0.0 ± 0.0% | 
O=C(N[C@@H]1C(O)O[C@H](CO)[C@@H](O)[C@@H]1O)c1cc2ccccc2o1 (stereo partly drawn) [Compound 11] | 42.5 ± 6.5 µM | 12% | 10% |  | 
O=C(N[C@H]1C(O)O[C@H](CO)[C@H](O)[C@@H]1O)c1ccc(CCl)cc1 (stereo partly drawn) [Compound 15] | 37.9 ± 4.77 µM | 8% | 27% |  | 
CCOc1ccc(C2Oc3c(Br)cc(Br)cc3C=C2[N+](=O)[O-])cc1OC (stereo not drawn) [Compound 28, 6,8-Dibromo-2-(4-ethoxy-3-methoxyphenyl)-3-nitro-2H-chromene] |  |  |  |  | IC50 [1]: 0.356 µM
O=C(N[C@@H]1C(O)O[C@H](CO)[C@@H](O)[C@@H]1O)c1ccoc1 (stereo partly drawn) [Compound 12] | 67.5 ± 1.75 µM | 32% | 58% | 0.0 ± 0.0% | 
COc1ccc(C2Oc3ccc(Br)cc3C=C2[N+](=O)[O-])cc1OC (stereo not drawn) [Compound 26, 6-Bromo-2-(3,4-dimethoxyphenyl)-3-nitro-2H-chromene] |  |  |  |  | IC50 [1]: 0.435 µM
O=C(N[C@H]1C(O)O[C@H](CO)[C@@H](O)[C@@H]1O)c1cccc(Br)c1 (stereo partly drawn) [Compound 2] | 66.2 ± 3.83 µM | 31% | 57% | 0.0 ± 0.0% | 
O=C(N[C@H]1C(O)O[C@H](CO)[C@H](O)[C@@H]1O)c1cccc(Br)c1 (stereo partly drawn) [Compound 14] | 19.9 µM | 30% | 31% and 30.8% | 0.0 ± 0.0% | 
O=C(N[C@H]1C(O)O[C@H](CO)[C@@H](O)[C@@H]1O)c1ccc(CCl)cc1 (stereo partly drawn) [Compound 3] | 52.9 ± 2.72 µM | 35% | 42% | 0.0 ± 0.0% | 
O=C(N[C@@H]1C(O)O[C@H](CO)[C@@H](O)[C@@H]1O)c1cccc(Br)c1 (stereo partly drawn) [Compound 8] | 38.4 ± 1.4 µM | 27% | 35% | 0.0 ± 0.0% | 
COc1ccc(C2Oc3c(Br)cc(Br)cc3C=C2[N+](=O)[O-])cc1OC (stereo not drawn) [Compound 27, 6,8-Dibromo-2-(3,4-dimethoxyphenyl)-3-nitro-2H-chromene] |  |  |  |  | IC50 [1]: 0.416 µM
O=C[C@@H](O)[C@@H](O)[C@H](O)[C@H](O)CO [D-mannose] |  |  |  |  | increase of TcGlcK activity from 15 mM to 50 mM substrate [6]: 2.69 fold; TcGlcK activity relative to D-glucose (100%) ([6]; substrate concentration 15 mM): 6.18%; TcGlcK activity relative to D-glucose (100%) ([6]; substrate concentration 50 mM): 16.6%
O=C[C@H](O)[C@@H](O)[C@@H](O)[C@H](O)CO [D-galactose] |  |  |  |  | TcGlcK activity relative to D-glucose (100%) ([6]; substrate concentration 15 mM): 0.00%; TcGlcK activity relative to D-glucose (100%) ([6]; substrate concentration 50 mM): 0.00%
COc1ccc(C2Oc3c(cc(Br)cc3OC)C=C2[N+](=O)[O-])cc1OC (stereo not drawn) [Compound 25, 6-Bromo-2-(3,4-dimethoxyphenyl)-8-methoxy-3-nitro-2H-chromene] |  |  |  |  | IC50 [1]: 0.515 µM

From patent US11059842B2, “Monosaccharide amine and 3-nitro-2-phenyl-2H-chromene based inhibitors of glucose kinases” (UNIVERSITY OF SOUTH CAROLINA, priority 2019, dated 2021)
